Measurements: patent US10888087B2, “Lactam solubility” (Conopco, Inc., priority 2015, dated 2021)

Test: Screening of NIS: lactam solubility in water or water + non-ionic surfactant additive, quantified by HPLC
Assay type: physicochemical
Design: key to Solubility Increase vs water alone: fold: lactam dissolved in water+additive / lactam dissolved in water
Settings: for Mean Lactam Level in Solution (ppm): 48 hours agitation
Protocol: The following representative example uses 4-(4-chlorophenyl)-5-methylene-pyrrol-2-one.
Excess solid lactam (˜3 mg) was placed in a Whatman® Mini Uniprep sample vial, fitted with a 0.45 um nylon filter. Water or water+additive (NIS) (500 μL) was added the mixture shaken and tapped briefly to initially disperse the solid and the mixture then agitated for 48 hours using a plate shaker fitted with a vial holder. After 48 hours, the solid was removed from the system by pressing down the plunger with integral filter on the vial. This removes the solid and provides filtered solution within the inner chamber which is then ready for analysis.
The level of lactam dissolved in solution was quantified using HPLC analysis. Samples were analysed on an Agilent 1200® series HPLC fitted with a Thermo Hypersil Gold® C18 column (15×2.1×3 μm), isocratic elution with 60/40 methanol/water (+0.1% Formic Acid), 0.4 mL/min flow rate, using a DAD detector at 285 nm. The lactam tested has a retention time of ˜2.8 minutes.
For each additive, the absolute level of lactam in solution was measured and reported as an increase in solubility of lactam relative to water alone.
Each test surfactant solution was tested in triplicate and the mean value of lactam in solution calculated. Values of solubility were quoted as the improvement in aqueous solubility vs water alone (i.e. mean level of lactam dissolved in water+solvent/mean level of lactam dissolved in water) to allow comparison between screens conducted on different days.

[1] = Neodol 25-7, 0% additive in water
[2] = Neodol 25-7, 0.5% additive in water
[3] = Neodol 25-7, 1% additive in water
[4] = Neodol 25-7, 2% additive in water
[5] = Neodol 25-7, 5% additive in water
[6] = Neodol 25-7, 10% additive in water
[7] = Neodol 25-7, 20% additive in water
[8] = Tween 20, 0.5% additive in water
[9] = Tween 20, 10% additive in water
[10] = Tween 20, 20% additive in water
[11] = Tween 80, 0.5% additive in water
[12] = Tween 80, 10% additive in water

SMILES: C=C1NC(=O)C=C1c1ccc(Cl)cc1 [Ref. 488, 4-(4-chlorophenyl)-5-methylene-pyrrol-2-one]
- Solubility Increase vs water alone [1]: 1.0
- Mean Lactam Level in Solution (ppm) [1]: 2.4 ppm
- Solubility Increase vs water alone [2]: 48.3
- Mean Lactam Level in Solution (ppm) [2]: 116.0 ppm
- Solubility Increase vs water alone [3]: 84.7
- Mean Lactam Level in Solution (ppm) [3]: 203.2 ppm
- Solubility Increase vs water alone [4]: 162.7
- Mean Lactam Level in Solution (ppm) [4]: 390.4 ppm
- Solubility Increase vs water alone [5]: 251.4
- Mean Lactam Level in Solution (ppm) [5]: 603.3 ppm
- Solubility Increase vs water alone [6]: 255.2
- Mean Lactam Level in Solution (ppm) [6]: 612.5 ppm
- Solubility Increase vs water alone [7]: 189.8
- Mean Lactam Level in Solution (ppm) [7]: 455.6 ppm
- Solubility Increase vs water alone (Tween 20, 0% additive in water): 1.0
- Mean Lactam Level in Solution (ppm) (Tween 20, 0% additive in water): 1.7 ppm
- Solubility Increase vs water alone [8]: 36.9
- Mean Lactam Level in Solution (ppm) [8]: 61.6 ppm
- Solubility Increase vs water alone (Tween 20, 1% additive in water): 70.9
- Mean Lactam Level in Solution (ppm) (Tween 20, 1% additive in water): 118.3 ppm
- Solubility Increase vs water alone (Tween 20, 2% additive in water): 135.8
- Mean Lactam Level in Solution (ppm) (Tween 20, 2% additive in water): 226.5 ppm
- Solubility Increase vs water alone (Tween 20, 5% additive in water): 310.7
- Mean Lactam Level in Solution (ppm) (Tween 20, 5% additive in water): 518.3 ppm
- Solubility Increase vs water alone [9]: 497.3
- Mean Lactam Level in Solution (ppm) [9]: 829.6 ppm
- Solubility Increase vs water alone [10]: 927.0
- Mean Lactam Level in Solution (ppm) [10]: 1546.3 ppm
- Solubility Increase vs water alone (Tween 80, 0% additive in water): 1.00
- Mean Lactam Level in Solution (ppm) (Tween 80, 0% additive in water): 6.0 ppm
- Solubility Increase vs water alone [11]: 6.92
- Mean Lactam Level in Solution (ppm) [11]: 41.5 ppm
- Solubility Increase vs water alone (Tween 80, 1% additive in water): 12.51
- Mean Lactam Level in Solution (ppm) (Tween 80, 1% additive in water): 75.0 ppm
- Solubility Increase vs water alone (Tween 80, 2% additive in water): 20.56
- Mean Lactam Level in Solution (ppm) (Tween 80, 2% additive in water): 123.3 ppm
- Solubility Increase vs water alone (Tween 80, 5% additive in water): 34.74
- Mean Lactam Level in Solution (ppm) (Tween 80, 5% additive in water): 208.4 ppm
- Solubility Increase vs water alone [12]: 65.23
- Mean Lactam Level in Solution (ppm) [12]: 391.4 ppm
